Some results are limits rather than exact numbers.

The term EC50 denotes the concentration needed to bring the measured effect to its halfway point.

In one assay the test system is recombinant NL4-3 virus (Renilla luciferase in nef, Gag P373S; NLRluc) in MT-2 cells. Kind of assay: whole plant or invertebrate. The class given is cell-based, HIV. Particulars: Renilla, NL43, luciferase activity in cells infected for 4-5 days with NLRluc recombinants, serial dilutions of inhibitor; class symbols (key in Table 1); read-out: EC50. Summed up:
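Inhibitor potency against the reporter virus comes from reduced luciferase activity in infected MT-2 cells exposed to a dilution series of compound over 4-5 days.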
For `C=C(C)[C@@H]1CC[C@]2(NC(=O)N(CCCN(C)C)CCCN(C)C)CC[C@]3(C)[C@H](CC[C@@H]4[C@@]5(C)CC=C(c6ccc(C(=O)O)cc6)C(C)(C)[C@@H]5CC[C@]43C)[C@@H]12` [Example 30, 4-((1R,3aS,5aR,5bR,7aR,11aS,11bR,13aR,13bR)-3a-(3,3-bis(3-(dimethylamino)propyl)ureido)-5a,5b,8,8,11a-pentamethyl-1-(prop-1-en-2-yl)-2,3,3a,4,5,5a,5b,6,7,7a,8,11,11a,11b,12,13,13a,13b-octadecahydro-1H-cyclopenta[a]chrysen-9-yl)benzoic acid], the half-maximal effective concentration (EC50) is less than 100 nM. `C=C(C)[C@@H]1CC[C@]2(NC(=O)NCC(=O)N(C)C)CC[C@]3(C)[C@H](CC[C@@H]4[C@@]5(C)CC=C(c6ccc(C(=O)O)cc6)C(C)(C)[C@@H]5CC[C@]43C)[C@@H]12` [Example 31, 4-((1R,3aS,5aR,5bR,7aR,11aS,11bR,13aR,13bR)-3a-(3-(2-(dimethylamino)-2-oxoethyl)ureido)-5a,5b,8,8,11a-pentamethyl-1-(prop-1-en-2-yl)-2,3,3a,4,5,5a,5b,6,7,7a,8,11,11a,11b,12,13,13a,13b-octadecahydro-1H-cyclopenta[a]chrysen-9-yl)benzoic acid]: the EC50 was less than 100 nM.

On to `C=C(C)[C@@H]1CC[C@]2(NC(=O)NCCC(=O)O)CC[C@]3(C)[C@H](CC[C@@H]4[C@@]5(C)CC=C(c6ccc(C(=O)O)cc6)C(C)(C)[C@@H]5CC[C@]43C)[C@@H]12` [Example 33, 4-((1R,3aS,5aR,5bR,7aR,11aS,11bR,13aR,13bR)-3a-(3-(2-carboxyethyl)ureido)-5a,5b,8,8,11a-pentamethyl-1-(prop-1-en-2-yl)-2,3,3a,4,5,5a,5b,6,7,7a,8,11,11a,11b,12,13,13a,13b-octadecahydro-1H-cyclopenta[a]chrysen-9-yl)benzoic acid], for which the concentration giving a half-maximal response (EC50) is less than 100 nM.

For the compound `C=C(C)[C@@H]1CC[C@]2(NC(=O)N3CCCN(C(C)=O)CC3)CC[C@]3(C)[C@H](CC[C@@H]4[C@@]5(C)CC=C(c6ccc(C(=O)O)cc6)C(C)(C)[C@@H]5CC[C@]43C)[C@@H]12` [Example 35, 4-((1R,3aS,5aR,5bR,7aR,11aS,11bR,13aR,13bR)-3a-(4-acetyl-1,4-diazepane-1-carboxamido)-5a,5b,8,8,11a-pentamethyl-1-(prop-1-en-2-yl)-2,3,3a,4,5,5a,5b,6,7,7a,8,11,11a,11b,12,13,13a,13b-octadecahydro-1H-cyclopenta[a]chrysen-9-yl)benzoic acid], the EC50 is less than 100 nM. In the case of `C=C(C)[C@@H]1CC[C@]2(NC(=O)OC)CC[C@]3(C)[C@H](CC[C@@H]4[C@@]5(C)CC=C(c6ccc(C(=O)O)cc6)C(C)(C)[C@@H]5CC[C@]43C)[C@@H]12` [Example 36, 4-((1R,3aS,5aR,5bR,7aR,11aS,11bR,13aR,13bR)-3a-(methoxycarbonylamino)-5a,5b,8,8,11a-pentamethyl-1-(prop-1-en-2-yl)-2,3,3a,4,5,5a,5b,6,7,7a,8,11,11a,11b,12,13,13a,13b-octadecahydro-1H-cyclopenta[a]chrysen-9-yl)benzoic acid], the EC50 was less than 100 nM. For the compound `C=C(C)[C@@H]1CC[C@]2(NC(=O)N3CCN(CCO)CC3)CC[C@]3(C)[C@H](CC[C@@H]4[C@@]5(C)CC=C(c6ccc(C(=O)O)cc6)C(C)(C)[C@@H]5CC[C@]43C)[C@@H]12` [Example 38, 4-((1R,3aS,5aR,5bR,7aR,11aS,11bR,13aR,13bR)-3a-(4-(2-hydroxyethyl)piperazine-1-carboxamido)-5a,5b,8,8,11a-pentamethyl-1-(prop-1-en-2-yl)-2,3,3a,4,5,5a,5b,6,7,7a,8,11,11a,11b,12,13,13a,13b-octadecahydro-1H-cyclopenta[a]chrysen-9-yl)benzoic acid], the EC50 was less than 100 nM. In the case of `C=C(C)[C@@H]1CC[C@]2(NC(=O)N3CCN(CCN(C)C)CC3)CC[C@]3(C)[C@H](CC[C@@H]4[C@@]5(C)CC=C(c6ccc(C(=O)O)cc6)C(C)(C)[C@@H]5CC[C@]43C)[C@@H]12` [Example 39, 4-((1R,3aS,5aR,5bR,7aR,11aS,11bR,13aR,13bR)-3a-(4-(2-(dimethylamino)ethyl)piperazine-1-carboxamido)-5a,5b,8,8,11a-pentamethyl-1-(prop-1-en-2-yl)-2,3,3a,4,5,5a,5b,6,7,7a,8,11,11a,11b,12,13,13a,13b-octadecahydro-1H-cyclopenta[a]chrysen-9-yl)benzoic acid], the EC50 was less than 100 nM. For the compound `C=C(C)[C@@H]1CC[C@]2(NC(=O)N3CCN(C4CCN(C)CC4)CC3)CC[C@]3(C)[C@H](CC[C@@H]4[C@@]5(C)CC=C(c6ccc(C(=O)O)cc6)C(C)(C)[C@@H]5CC[C@]43C)[C@@H]12` [Example 40, 4-((1R,3aS,5aR,5bR,7aR,11aS,11bR,13aR,13bR)-5a,5b,8,8,11a-pentamethyl-3a-(4-(1-methylpiperidin-4-yl)piperazine-1-carboxamido)-1-(prop-1-en-2-yl)-2,3,3a,4,5,5a,5b,6,7,7a,8,11,11a,11b,12,13,13a,13b-octadecahydro-1H-cyclopenta[a]chrysen-9-yl)benzoic acid], the EC50 was less than 100 nM.

Staying with this assay, now noted: Renilla, NL43, luciferase activity in cells infected for 4-5 days with NLRluc recombinants, serial dilutions of inhibitor; numeric values; read-out: EC50.
In the case of `C=C(C)[C@@H]1CC[C@]2(NC(=O)N(C)C)CC[C@]3(C)[C@H](CC[C@@H]4[C@@]5(C)CC=C(c6ccc(C(=O)O)cc6)C(C)(C)[C@@H]5CC[C@]43C)[C@@H]12` [Example 32, 4-((1R,3aS,5aR,5bR,7aR,11aS,11bR,13aR,13bR)-3a-(3,3-dimethylureido)-5a,5b,8,8,11a-pentamethyl-1-(prop-1-en-2-yl)-2,3,3a,4,5,5a,5b,6,7,7a,8,11,11a,11b,12,13,13a,13b-octadecahydro-1H-cyclopenta[a]chrysen-9-yl)benzoic acid], the EC50 came to 10 nM. The same measure, in the same setting: the result for `C=C(C)[C@@H]1CC[C@]2(NC(=O)N3CCCN(C)CC3)CC[C@]3(C)[C@H](CC[C@@H]4[C@@]5(C)CC=C(c6ccc(C(=O)O)cc6)C(C)(C)[C@@H]5CC[C@]43C)[C@@H]12` [Example 34, 4-((1R,3aS,5aR,5bR,7aR,11aS,11bR,13aR,13bR)-5a,5b,8,8,11a-pentamethyl-3a-(4-methyl-1,4-diazepane-1-carboxamido)-1-(prop-1-en-2-yl)-2,3,3a,4,5,5a,5b,6,7,7a,8,11,11a,11b,12,13,13a,13b-octadecahydro-1H-cyclopenta[a]chrysen-9-yl)benzoic acid] reads 2 nM; that for `C=C(C)[C@@H]1CC[C@]2(NC(=O)N3CCN(C4CCCC4)C(=O)C3)CC[C@]3(C)[C@H](CC[C@@H]4[C@@]5(C)CC=C(c6ccc(C(=O)O)cc6)C(C)(C)[C@@H]5CC[C@]43C)[C@@H]12` [Example 37, 4-((1R,3aS,5aR,5bR,7aR,11aS,11bR,13aR,13bR)-3a-(4-cyclopentyl-3-oxopiperazine-1-carboxamido)-5a,5b,8,8,11a-pentamethyl-1-(prop-1-en-2-yl)-2,3,3a,4,5,5a,5b,6,7,7a,8,11,11a,11b,12,13,13a,13b-octadecahydro-1H-cyclopenta[a]chrysen-9-yl)benzoic acid], 4 nM.

Source of the values: patent publication US20140343000A1 (priority 2011, published 2014).
